Assay [1] concerns angiogenesis (hemoglobin content of Matrigel plug). Put plainly: Matrigel plug assay in C57BL/6J mice. The class given is in vivo, mouse. As to conditions: Compound 12 100 nM, gefitinib 5 μM in Matrigel, 10 days. On the procedure: HIF-1α is synthesized by growth factor signaling pathways, such as those of EGFR [30] [31]. Inhibition of HIF-1α in its pathways of synthesis, as well as in its pathway of degradation, would seem to make for a more efficient anti-cancer/anti-angiogenesis treatment. To confirm this, we performed a tumor allogaft experiment using Lewis lung carcinoma (LLC) cells. 1 × 10^6 LLC cells were inoculated into the mouse flank subcutaneously (s.c.), and treatment with Compound 12 (5 mg/kg) and/or gefitinib (an EGFR inhibitor, 50 mg/kg), via intraperitoneal (i.p.) administration, was performed every other day for 20 days. […] To confirm the effect of Compound 12 on angiogenesis, we analyzed angiogenesis using the Matrigel plug assay. […]
Figure 6 Compound 12 suppressed allogaft tumor growth and enhanced the effects of a chemotherapeutic agent (A, B) Lewis lung carcinoma cells were inoculated into flanks of C57BL/6J mice (Day 0). […] Tumor size (A) and tumor weight (B) were measured three times a week and on the final day, respectively. […] The content of hemoglobin was quantified and graphed. (D) Tumor tissue sections (10 μm) indicated were stained with H&E and immunostained with anti-CD31 antibody to detect microvessel density; CD31+ cell percentages were then calculated and graphed. […] (F) Images and quantitative comparisons (graph) for Ki67+ proliferating cells in tumor center regions are shown. […]

Assay [2] concerns Lewis lung carcinoma (LLC) cells. The assay is described as follows: Lewis lung carcinoma allograft in C57BL/6J mice with immunohistochemistry. The class given is in vivo, mouse. The method, then: HIF-1α is synthesized by growth factor signaling pathways, such as those of EGFR [30] [31]. Inhibition of HIF-1α in its pathways of synthesis, as well as in its pathway of degradation, would seem to make for a more efficient anti-cancer/anti-angiogenesis treatment. To confirm this, we performed a tumor allogaft experiment using Lewis lung carcinoma (LLC) cells. 1 × 10^6 LLC cells were inoculated into the mouse flank subcutaneously (s.c.), and treatment with Compound 12 (5 mg/kg) and/or gefitinib (an EGFR inhibitor, 50 mg/kg), via intraperitoneal (i.p.) administration, was performed every other day for 20 days. At Day 20, mice were sacrificed and tumor tissue was fixed in formaldehyde for 1 h for further histological examination. […] To confirm the effect of Compound 12 on angiogenesis, we analyzed angiogenesis using the Matrigel plug assay. […] To confirm the effects of Compound 12 on anti-angiogenesis, we sectioned the tumor tissues to determine microvessel density (MSD) via immunohistochemistry (using CD31 antibody).
Figure 6 Compound 12 suppressed allogaft tumor growth and enhanced the effects of a chemotherapeutic agent (A, B) Lewis lung carcinoma cells were inoculated into flanks of C57BL/6J mice (Day 0). From two days after inoculation, mice were treated intraperitoneally with Compound 12 (5 mg/kg body weight) and gefitinib (50 mg/kg body weight), three times a week, for 18 days and then sacrificed. Tumor size (A) and tumor weight (B) were measured three times a week and on the final day, respectively. Tumor masses were photographed and shown in box below the graph. **P < 0.05 versus control group. (C) Matrigel was treated with DMSO, Compound 12 (100 nM), and gefitinib (5 μM) and inoculated in the flank of C57BL/6J mice. After 10 days matrigel plug was removed and photographed. The content of hemoglobin was quantified and graphed. (D) Tumor tissue sections (10 μm) indicated were stained with H&E and immunostained with anti-CD31 antibody to detect microvessel density; CD31+ cell percentages were then calculated and graphed. Scale bar, 100 μm. **P < 0.05 versus control group. (E) Images and quantitative comparisons (graph) for hypoxic regions, immunostained CA9 protein, and microvessels (CD31+ cells) in tumor center regions are shown. Scale bar, 100 μm. **P < 0.05 versus control group. (F) Images and quantitative comparisons (graph) for Ki67+ proliferating cells in tumor center regions are shown. Scale bar, 100 μm. **P < 0.05 versus control group.
We determined levels of hypoxia in tissues via: 1) antibodies against the hypoxic cell marker pimonidazole (PIMO), and 2) checking expression levels of carbonic anhydrase (CA9), a downstream target of HIF-1.
LLC cells (1 × 10^6) were injected subcutaneously into the flanks of 6-week-old C57BL/6J mice (Day 0)(SLC, Japan). Tumor size and body weight were measured 3 time a week. Tumor tissues were removed at day 20 after completion of injection of vehicle or drugs and fixed with 4% paraformaldehyde (PFA). After tissue processing for frozen sample preparation protocol, samples were embedded in OCT compound and frozen quickly by liquid nitrogen. Frozen blocks were cut into 10 μm sections and stained with hematoxylin and eosin (H&E) for light microscopy. Additional tissue sections for immunohistochemistry were blocked with 5% goat serum in PBST (0.03% Triton X-100 in PBS) and then incubated for 3 h at RT with following primary antibodies, anti-CD31 and anti-Ki67. To detect the hypoxic area in the tumors, Hypoxyprobe-1™ (60 mg/kg, Natural Pharmacia International) was iv injected 90 min before tissue fixation. Tumors were harvested, sectioned and stained with FITC-conjugated anti-Hypoxyprobe antibody.

Assay [3] concerns the target HIF-1α (Homo sapiens, UniProt Q16665). The assay is described as follows: Immunofluorescence of nuclear HIF-1α in A549 cells. The class given is cell-based. The note with it: 1–100 nM, hypoxia 16 h. The method, then: To further confirm the effects of Compound 12 on the inhibition of HIF-1α protein expression, we performed an immunofluorescent assay in A549 cells. Cells were treated with Compound 12 (1–100 nM) for 16 h under hypoxic conditions, and were then fixed with paraformaldehyde. Fixed cells were processed to allow immunostaining of HIF-1α by a HIF-1α antibody.
Figure 4 Compound 12 increased hydroxylation and proteasome-mediated degradation of HIF-1α (A) A549 cells were treated with Compound 12 (at concentrations of 0 nM, 1 nM, 10 nM, and 100 nM) for 16 h. […] Cells were immediately treated with cycloheximide (CHX, 100 μg/mL) for the time indicated, and HIF-1α protein levels were determined by western blotting. β-actin was used as an internal control. Half-life (t1/2) of HIF-1α protein was determined using relative expression levels of HIF-1α. […] The expression levels of HIF-1α, hydroxylated (OH)-HIF-1α at P402 or P564, and PHD2 were determined via western blotting using specific antibodies. […] Relative levels of ubiquitinated HIF-1α were quantified and graphed.
Cells were cultured on coverslips in four-well plates at a density of 1 × 10^5 cells/well, and allowed to attach for 24 h. […] Coverslips were mounted on slides, and cells were observed using fluorescence microscopy at 400X magnification (Carl Zeiss, AG, Germany).

“Also recorded” adds a separate entry of the source.

HIF-1α, sequence (Q16665 whole entry): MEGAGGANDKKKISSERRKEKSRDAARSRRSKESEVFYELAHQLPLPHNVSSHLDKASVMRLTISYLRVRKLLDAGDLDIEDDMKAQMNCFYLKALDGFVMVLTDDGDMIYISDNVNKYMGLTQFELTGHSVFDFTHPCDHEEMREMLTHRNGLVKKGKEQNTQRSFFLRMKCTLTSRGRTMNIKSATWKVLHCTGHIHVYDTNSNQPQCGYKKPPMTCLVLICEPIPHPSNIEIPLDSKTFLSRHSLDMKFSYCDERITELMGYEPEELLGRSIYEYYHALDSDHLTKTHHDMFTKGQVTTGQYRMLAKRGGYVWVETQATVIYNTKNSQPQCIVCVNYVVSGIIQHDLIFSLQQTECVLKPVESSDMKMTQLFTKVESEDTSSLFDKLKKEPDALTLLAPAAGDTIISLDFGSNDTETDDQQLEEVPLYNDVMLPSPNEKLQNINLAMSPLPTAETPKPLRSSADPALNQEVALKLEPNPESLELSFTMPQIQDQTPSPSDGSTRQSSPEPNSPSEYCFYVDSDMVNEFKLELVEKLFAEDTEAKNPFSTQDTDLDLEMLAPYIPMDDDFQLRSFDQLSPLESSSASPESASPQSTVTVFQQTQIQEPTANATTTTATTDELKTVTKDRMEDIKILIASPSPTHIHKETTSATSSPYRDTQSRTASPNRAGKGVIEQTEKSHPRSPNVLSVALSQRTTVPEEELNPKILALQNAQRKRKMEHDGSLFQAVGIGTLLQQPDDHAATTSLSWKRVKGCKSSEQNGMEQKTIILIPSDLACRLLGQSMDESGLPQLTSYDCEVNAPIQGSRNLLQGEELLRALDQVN

As for `COc1ccc(-c2cn(CC3(C)C=Cc4cc([N+](=O)[O-])ccc4O3)nn2)cc1` (centres unmarked) [Compound 12, 4-(4-methoxyphenyl)-1-((2-methyl-6-nitro-2H-chromen-2-yl)methyl)-1H-1,2,3-triazole], the “anti-angiogenic activity, Matrigel plug (hemoglobin content)” value in assay [1] is given as “anti-angiogenic activity was increased”. Moreover, in assay [2] (LLC allograft tumor sections), the “PIMO/CA9 levels in tumors, Compound 12 combined with gefitinib” value was “decreased synergistically”; the “levels of PIMO and CA9 in tumors, single agent” value is on record as “significantly diminished”; the “microvessel density (MSD), CD31, Compound 12 combined with gefitinib” value was “synergistically decreased MSD”; the “microvessel density (MSD), CD31, single agent” value is “significantly decreased MSD”. Besides, the “cells expressing Ki-67 protein in tumors” value in assay [2] (LLC allograft tumor sections, single agent) was “significantly decreased”. Further, the “tumor growth, single agent” value in assay [2] (LLC allograft, C57BL/6J mice, i.p., Compound 12 5 mg/kg, gefitinib 50 mg/kg) is recorded as “inhibited tumor growth significantly”. Moreover, in assay [2] (LLC allograft, i.p., 5 mg/kg, final day), the tumor weight result is on record as “significantly decreased”. The “tumor growth, Compound 12 combined with gefitinib” value in assay [2] (LLC allograft, i.p., Compound 12 5 mg/kg plus gefitinib 50 mg/kg) was “significantly inhibited tumor growth and angiogenesis; also recorded: suppressed tumor growth more effectively than did either drug alone”. In assay [3], the “accumulation of nuclear HIF-1α” value is reported as “inhibited in dose-dependent manner” and the “subcellular localization of HIF-1α” value is on record as “did not affect”.
